Experimental findings from US9546152B2 (MERCK SHARP & DOHME CORP., priority 2012, dated 2017) are described below.

In assay [1] the target is T1, human orexin-2 receptor (Homo sapiens (Human), UniProt O43614). The assay can be described thus: radioligand binding assay, orexin-2 receptor. The following applies: membranes prepared from CHO cells expressing the OX2 receptor; read-out: hOX2R BIND hKi. The method, then:
(§1) In a typical experiment the OX1 and OX2 receptor antagonistic activity of the compounds of the present invention was determined in accordance with the following experimental method. For intracellular calcium measurements, Chinese hamster ovary (CHO) cells expressing the rat orexin-1 receptor or the human orexin-2 receptor, are grown in Iscove's modified DMEM containing 2 mM L-glutamine, […], 1% hypoxanthine-thymidine supplement, 100 U/ml penicillin, 100 μg/ml streptomycin and 10% heat-inactivated fetal calf serum (FCS). The cells are seeded at 20,000 cells/well into Becton-Dickinson black 384-well clear bottom sterile plates coated with poly-D-lysine. All reagents were from GIBCO-Invitrogen Corp. The seeded plates are incubated overnight at 37° C. and 5% CO2. Ala-6,12 human orexin-A as the agonist is prepared as a 1 mM stock solution in 1% bovine serum albumin (BSA) and diluted in assay buffer (HBSS containing 20 mM HEPES, 0.1% BSA and 2.5 mM probenecid, pH7.4) for use in the assay at a final concentration of 70 pM. Test compounds are prepared as 10 mM stock solution in DMSO, then diluted in 384-well plates, first in DMSO, then assay buffer. On the day of the assay, cells are washed 3 times with 100 μl assay buffer and then incubated for 60 min (37° C., 5% CO2) in 60 μl assay buffer containing 1 μM Fluo-4AM ester, 0.02% pluronic acid, and 1% BSA. The dye loading solution is then aspirated and cells are washed 3 times with 100 μl assay buffer. 30 μl of that same buffer is left in each well. Within the Fluorescent Imaging Plate Reader (FLIPR, Molecular Devices), test compounds are added to the plate in a volume of 25 μl, incubated for 5 min and finally 25 μl of agonist is added. Fluorescence is measured for each well at 1 second intervals for 5 minutes and the height of each fluorescence peak is compared to the height of the fluorescence peak induced by 70 pM Ala-6,12 orexin-A with buffer in place of antagonist. […] Alternatively, compound potency can be assessed by a radioligand binding assay (described in Bergman et. al. Bioorg. Med. Chem. Lett. 2008, 18, 1425-1430) in which the inhibition constant (Ki) is determined in membranes prepared from CHO cells expressing either the OX1 or OX2 receptor. The intrinsic orexin receptor antagonist activity of a compound which may be used in the present invention may be determined by these assays.

The target in assay [2] is T1, human orexin-2 receptor. The assay can be described thus: FLIPR Ca2+ Flux Assay, orexin-2 receptor. In kind it is cell-based. The following applies: CHO cells expressing the human orexin-2 receptor; agonist 70 pM Ala-6,12 human orexin-A; read-out: hOX2R FLIPR IC50. The method, then:
as §1

Structures are written as SMILES.

T1 sequence (O43614 whole entry): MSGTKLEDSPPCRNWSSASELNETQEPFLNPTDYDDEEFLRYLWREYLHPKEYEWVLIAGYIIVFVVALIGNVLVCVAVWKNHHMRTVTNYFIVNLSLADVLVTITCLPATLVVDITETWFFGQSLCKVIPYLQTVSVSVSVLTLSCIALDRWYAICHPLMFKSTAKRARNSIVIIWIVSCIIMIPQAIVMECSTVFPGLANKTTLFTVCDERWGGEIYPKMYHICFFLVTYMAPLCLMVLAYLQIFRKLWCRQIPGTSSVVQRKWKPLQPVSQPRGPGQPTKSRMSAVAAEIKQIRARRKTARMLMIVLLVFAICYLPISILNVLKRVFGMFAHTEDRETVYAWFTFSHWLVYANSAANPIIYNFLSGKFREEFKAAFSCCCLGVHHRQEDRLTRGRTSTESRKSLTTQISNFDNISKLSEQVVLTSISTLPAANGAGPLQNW

As a reminder, the IC50 is the concentration that gives 50% inhibition. As for `Cc1c(C#N)ccnc1O[C@@H]1CC[C@@H](C)N(C(=O)c2ccc(Cl)cc2-n2nccn2)C1` [Example 4, 2-{[(3R,6R)-1-{[4-chloro-2-(2H-1,2,3-triazol-2-yl)phenyl]carbonyl}-6-methylpiperidin-3-yl]oxy}-3-methylpyridine-4-carbonitrile], on human orexin-2 receptor [1], the Ki turned out to be 0.4 nM. Besides, at human orexin-2 receptor [2], the IC50 came out at 12 nM. In the same order, the values of `COc1ccc(C(=O)N2C[C@H](Oc3nccc(C#N)c3C)CC[C@H]2C)c(C2CC2)n1` [Example 5, 2-({(3R,6R)-1-[(2-cyclopropyl-6-methoxypyridin-3-yl)carbonyl]-6-methylpiperidin-3-yl}oxy)-3-methylpyridine-4-carbonitrile] are 1.7 nM and 32 nM. In the same order, the values of `COc1ccc(C(=O)N2C[C@H](Oc3nccc(C#N)c3C)CC[C@H]2C)c(-n2nccn2)c1` [Example 7, 2-{[(3R,6R)-1-{[4-methoxy-2-(2H-1,2,3-triazol-2-yl)phenyl]carbonyl}-6-methylpiperidin-3-yl]oxy}-3-methylpyridine-4-carbonitrile] are 1.3 nM and 13 nM.

Take `Cc1c(C#N)ccnc1O[C@@H]1CC[C@@H](C)N(C(=O)c2cccc(F)c2-n2nccn2)C1` [Example 12, 2-{[(3R,6R)-1-{[3-fluoro-2-(2H-1,2,3-triazol-2-yl)phenyl]carbonyl}-6-methylpiperidin-3-yl]oxy}-3-methylpyridine-4-carbonitrile]: the Ki at human orexin-2 receptor [1] was determined as 1 nM. Also, the IC50 on human orexin-2 receptor [2] came out at 12 nM. On the same counts, the results for `Cc1c(C#N)ccnc1O[C@@H]1CC[C@@H](C)N(C(=O)c2c(F)cccc2-c2nccs2)C1` [Example 18, 2-{[(3R,6R)-1-{[2-fluoro-6-(1,3-thiazol-2-yl)phenyl]carbonyl}-6-methylpiperidin-3-yl]oxy}-3-methylpyridine-4-carbonitrile] are 0.1 nM and 7 nM. On the same counts, the results for `Cc1c(C#N)ccnc1O[C@@H]1CC[C@@H](C)N(C(=O)c2sncc2-c2ccccc2)C1` [Example 20, 3-methyl-2-({(3R,6R)-6-methyl-1-[(4-phenylisothiazol-5-yl)carbonyl]piperidin-3-yl}oxy)pyridine-4-carbonitrile] are 15.2 nM and 89 nM. In the same order, the values of `Cc1c(C#N)ccnc1O[C@@H]1CC[C@@H](C)N(C(=O)c2ccccc2OC(C)C)C1` [Example 21, 3-methyl-2-{[(3R,6R)-6-methyl-1-{[2-(1-methylethoxy)phenyl]carbonyl}piperidin-3-yl]oxy}pyridine-4-carbonitrile] are 0.6 nM and 8 nM. In the case of `Cc1c(C#N)ccnc1O[C@@H]1CC[C@@H](C)N(C(=O)c2ccncc2-c2ccccc2)C1` [Example 23, 3-methyl-2-({(3R,6R)-6-methyl-1-[(3-phenylpyridin-4-yl)carbonyl]piperidin-3-yl}oxy)pyridine-4-carbonitrile], at human orexin-2 receptor [1], the Ki amounted to 16.6 nM. The IC50 on human orexin-2 receptor [2] amounted to 69 nM. As to `Cc1c(C#N)ccnc1O[C@@H]1CC[C@@H](C)N(C(=O)c2ccccc2-c2ncco2)C1` [Example 27, 3-methyl-2-{[(3R,6R)-6-methyl-1-{[2-(1,3-oxazol-2-yl)phenyl]carbonyl}piperidin-3-yl]oxy}pyridine-4-carbonitrile], at human orexin-2 receptor [1], the Ki is 0.3 nM. For the same molecule, the IC50 on human orexin-2 receptor [2] worked out at 17 nM. With `Cc1c(C#N)ccnc1O[C@@H]1CC[C@@H](C)N(C(=O)c2ccccc2-c2cscn2)C1` [Example 33, 3-methyl-2-{[(3R,6R)-6-methyl-1-{[2-(1,3-thiazol-4-yl)phenyl]carbonyl}piperidin-3-yl]oxy}pyridine-4-carbonitrile], the Ki at human orexin-2 receptor [1] is 0.2 nM. In addition, the IC50 on human orexin-2 receptor [2] was found to be 6 nM. On to `Cc1c(C#N)ccnc1O[C@@H]1CC[C@@H](C)N(C(=O)c2ccccc2-c2nccs2)C1` [Example 44, 3-methyl-2-{[(3R,6R)-6-methyl-1-{[2-(1,3-thiazol-2-yl)phenyl]carbonyl}piperidin-3-yl]oxy}pyridine-4-carbonitrile], for which, at human orexin-2 receptor [1], the Ki was found to be 0.1 nM. Besides, the half-maximal inhibitory concentration (IC50) on human orexin-2 receptor [2] was 8 nM. On the same counts, the results for `COc1ccc(C(=O)N2C[C@H](Oc3nccc(C#N)c3C)CC[C@H]2C)c(-c2ccncc2)n1` [Example 48, 2-({(3R,6R)-1-[(6-methoxy-2,4′-bipyridin-3-yl)carbonyl]-6-methylpiperidin-3-yl}oxy)-3-methylpyridine-4-carbonitrile] are 8.9 nM and 65 nM. In the case of `Cc1c(C#N)ccnc1O[C@@H]1CC[C@@H](C)N(C(=O)c2nscc2-c2ccccc2)C1` [Example 50], on human orexin-2 receptor [1], the Ki is 2 nM. Moreover, at human orexin-2 receptor [2], the IC50 was found to be 22 nM.

Consider `Cc1c(C#N)ccnc1O[C@@H]1CC[C@@H](C)N(C(=O)c2nscc2-n2nccn2)C1` [Example 55, 3-methyl-2-{[(3R,6R)-6-methyl-1-{[4-(2H-1,2,3-triazol-2-yl)isothiazol-3-yl]carbonyl}piperidin-3-yl]oxy}pyridine-4-carbonitrile], for which, at human orexin-2 receptor [1], the Ki came to 7.4 nM. Further, at human orexin-2 receptor [2], the IC50 turned out to be 81 nM. For the molecule `Cc1c(C#N)ccnc1O[C@@H]1CC[C@@H](C)N(C(=O)c2ccccc2OC(F)(F)F)C1` [Example 62, 3-methyl-2-{[(3R,6R)-6-methyl-1-{[2-(trifluoromethoxy)phenyl]carbonyl}piperidin-3-yl]oxy}pyridine-4-carbonitrile], at human orexin-2 receptor [1], the Ki worked out at 0.8 nM. For the same molecule, the IC50 at human orexin-2 receptor [2] is 16 nM. With `Cc1c(C#N)ccnc1O[C@@H]1CC[C@@H](C)N(C(=O)C2=C(c3ccccn3)CCC2)C1` [Example 63, 3-methyl-2-({(3R,6R)-6-methyl-1-[(2-pyridin-2-ylcyclopent-1-en-1-yl)carbonyl]piperidin-3-yl}oxy)pyridine-4-carbonitrile], on human orexin-2 receptor [1], the Ki was 4 nM. Besides, the IC50 at human orexin-2 receptor [2] is 59 nM.

Consider `COc1ccc(C(=O)N2C[C@H](Oc3nccc(C#N)c3C)CC[C@H]2C)c(C2CCC2)n1` [Example 66], for which the Ki at human orexin-2 receptor [1] came to 1.4 nM. In addition, the IC50 on human orexin-2 receptor [2] came to 77 nM.

`Cc1c(C#N)ccnc1O[C@@H]1CC[C@@H](C)N(C(=O)c2cc(F)ccc2-n2nccn2)C1` [Example 69, 2-{[(3R,6R)-1-{[5-fluoro-2-(2H-1,2,3-triazol-2-yl)phenyl]carbonyl}-6-methylpiperidin-3-yl]oxy}-3-methylpyridine-4-carbonitrile]: the Ki at human orexin-2 receptor [1] worked out at 0.6 nM. For the same molecule, the IC50 at human orexin-2 receptor [2] came out at 11 nM. For the molecule `COc1ccc(C(=O)N2C[C@H](Oc3nccc(C#N)c3C)CC[C@H]2C)c(OC)n1` [Example 73, 2-({(3R,6R)-1-[(2,6-dimethoxypyridin-3-yl)carbonyl]-6-methylpiperidin-3-yl}oxy)-3-methylpyridine-4-carbonitrile], at human orexin-2 receptor [1], the Ki worked out at 32.7 nM. For `COc1cc(-n2nccn2)c(C(=O)N2C[C@H](Oc3nccc(C#N)c3C)CC[C@H]2C)cn1` [Example 85, 2-{[(3R,6R)-1-{[6-methoxy-4-(2H-1,2,3-triazol-2-yl)pyridin-3-yl]carbonyl}-6-methylpiperidin-3-yl]oxy}-3-methylpyridine-4-carbonitrile], the Ki on human orexin-2 receptor [1] stood at 43.2 nM. In the case of `CSc1ccc(C(=O)N2C[C@H](Oc3nccc(C#N)c3C)CC[C@H]2C)c(-n2nccn2)n1` [Example 86, 3-methyl-2-{[(3R,6R)-6-methyl-1-{[6-(methylsulfanyl)-2-(2H-1,2,3-triazol-2-yl)pyridin-3-yl]carbonyl}-piperidin-3-yl]oxy}pyridine-4-carbonitrile], the Ki on human orexin-2 receptor [1] stood at 5.1 nM. The IC50 at human orexin-2 receptor [2] was determined as 126 nM. On the same counts, the results for `CCc1c(C#N)ccnc1O[C@@H]1CC[C@@H](C)N(C(=O)c2ccccc2-n2nccn2)C1` [Example 93, 3-ethyl-2-{[(3R,6R)-6-methyl-1-{[2-(2H-1,2,3-triazol-2-yl)phenyl]carbonyl}piperidin-3-yl]oxy}pyridine-4-carbonitrile] are 0.1 nM and 8 nM.

Regarding `COc1c(C#N)ccnc1O[C@@H]1CC[C@@H](C)N(C(=O)c2ccc(F)cc2-n2nccn2)C1` [Example 98, 2-{[(3R,6R)-1-{[4-fluoro-2-(2H-1,2,3-triazol-2-yl)phenyl]carbonyl}-6-methylpiperidin-3-yl]oxy}-3-methoxypyridine-4-carbonitrile], on human orexin-2 receptor [1], the Ki stood at 0.3 nM. Also, on human orexin-2 receptor [2], the IC50 came out at 19 nM.
